# Results: patent US11186554B2, “Non-fused tricyclic compounds” (VIVACE THERAPEUTICS, INC., priority 2017, dated 2021)
# Read-outs that look alike come from different tables or passages of the source.
# System: firefly luciferase activity
# Test: Dual-Glo firefly/renilla luciferase reporter assay in cells
# Type: cell-based
# [1] = 24 hrs compound treatment, starting from 3 uM, 1:3 dilution, 10 points, read-out: Firefly Luciferase IC50
# [2] = 24 h, read-out: Firefly Luciferase IC50 (μM)
SMILES,IC50 [1],IC50 [2]
"O[C@@H]1CCC[C@@H]1n1nnc(-c2ccccc2Nc2ccc(C(F)(F)F)cc2)n1 [Compound 200, (1R,2S)-2-(5-(2-((4-(trifluoromethyl)phenyl)amino)phenyl)-2H-tetrazol-2-yl)cyclopentan-1-ol]",0.1 to 1 µM,–
"OCCn1nnc(-c2ccccc2Nc2ccc(F)c(F)c2)n1 [Compound 25, 2-[5-[2-(3,4-difluoroanilino)phenyl]tetrazol-2-yl]ethanol]",0.1 to 1 µM,–
"OCCn1nnc(-c2cc(Cl)ccc2Nc2ccc(C(F)(F)F)cc2)n1 [Compound 238, 2-(5-(5-chloro-2-((4-(trifluoromethyl)phenyl)amino)phenyl)-2H-tetrazol-2-yl)ethanol]",–,< 0.1 µM
"OCCn1nnc(-c2ccccc2Nc2ccc(F)cc2)n1 [Compound 8, 2-[5-[2-(4-fluoroanilino)phenyl]tetrazol-2-yl]ethanol]",–,0.1 to 1 µM
"CCOC(=O)Cn1ncc(-c2ccccc2Nc2ccc(C(F)(F)F)cc2)c1C [Compound 77, ethyl 2-[5-methyl-4-[2-[4-(trifluoromethyl)anilino]phenyl]pyrazol-1-yl]acetate]",< 0.1 µM,–
"OCCn1nnc(-c2ccccc2Nc2cccc(Cl)c2)n1 [Compound 250, 2-(5-(2-((3-chlorophenyl)amino)phenyl)-2H-tetrazol-2-yl)ethanol]",–,1 to 5 µM
"NC(=O)OCCn1nnc(-c2ccccc2Nc2ccc(C(F)(F)F)cc2)n1 [Compound 124, 2-[5-[2-[4-(trifluoromethyl)anilino]phenyl]tetrazol-2-yl]ethyl carbamate]",< 0.1 µM,–
"OCCCn1nnc(-c2ccccc2Nc2cccc(C(F)(F)F)c2)n1 [Compound 13, 3-[5-[2-[3-(trifluoromethyl)anilino]phenyl]tetrazol-2-yl]propan-1-ol]",0.1 to 1 µM,–
"FC(F)(F)c1ccc(Nc2ccccc2-c2nnn(C3CCOCC3)n2)cc1 [Compound 122, 2-(2-tetrahydropyran-4-yltetrazol-5-yl)-N-[4-(trifluoromethyl)phenyl]aniline]",0.1 to 1 µM,–
"Cn1nc(-c2ccccc2Nc2ccc(C(F)(F)F)cc2)cc1CCO [Compound 196, 2-(1-methyl-3-(2-((4-(trifluoromethyl)phenyl)amino)phenyl)-1H-pyrazol-5-yl)ethan-1-ol]",1 to 5 µM,–
"CC(=O)OC1(Cn2nnc(-c3ccccc3Nc3ccc(C(F)(F)F)cc3)n2)CN(C(C)=O)C1 [Compound 162, [1-acetyl-3-[[5-[2-[4-(trifluoromethyl)anilino]phenyl]tetrazol-2-yl]methyl]azetidin-3-yl]acetate]",1 to 5 µM,–
"Cc1nn(CCO)cc1-c1ccccc1Nc1ccc(C(F)(F)F)cc1 [Compound 83, 2-[3-methyl-4-[2-[4-(trifluoromethyl)anilino]phenyl]pyrazol-1-yl]ethanol]",1 to 5 µM,–
"NS(=O)(=O)Cn1nnc(-c2ccccc2Nc2ccc(C(F)(F)F)cc2)n1 [Compound 101, (5-(2-((4-(trifluoromethyl)phenyl)amino)phenyl)-2H-tetrazol-2-yl)methane sulfonamide]",0.1 to 1 µM,–
"C[C@@H](O)[C@H](C)n1nnc(-c2ccccc2Nc2ccc(C(F)(F)F)cc2)n1 [Compound 194, (2R,3S)-3-(5-(2-((4-(trifluoromethyl)phenyl)amino)phenyl)-2H-tetrazol-2-yl)butan-2-ol]",< 0.1 µM,–
"O=C(Cn1nnc(-c2ccccc2Nc2ccc(C(F)(F)F)cc2)n1)c1ccccc1 [Compound 130, 1-phenyl-2-[5-[2-[4-(trifluoromethyl)anilino]phenyl]tetrazol-2-yl]ethanone]",1 to 5 µM,–
"OCCn1nnc(-c2cc(C3CC3)ccc2Nc2ccc(C(F)(F)F)cc2)n1 [Compound 255, 2-(5-(5-cyclopropyl-2-((4-(trifluoromethyl)phenyl)amino)phenyl)-2H-tetrazol-2-yl)ethanol]",< 0.1 µM,–
"OCCn1nnc(-c2ccccc2Nc2cccc(F)c2)n1 [Compound 10, 2-(5-(2-((3-fluorophenyl)amino)phenyl)-2H-tetrazol-2-yl)ethanol]",–,0.1 to 1 µM
"CCOC(=O)Cn1cnc(-c2ccccc2Nc2ccc(C(F)(F)F)cc2)c1 [Compound 202, ethyl 2-(4-(2-((4-(trifluoromethyl)phenyl)amino)phenyl)-1H-imidazol-1-yl)acetate]",0.1 to 1 µM,–
"FC(F)(F)c1ccc(Nc2ccccc2-c2nnn(CCOC3CCNCC3)n2)cc1 [Compound 198, 2-(2-(2-(piperidin-4-yloxy)ethyl)-2H-tetrazol-5-yl)-N-(4-(trifluoromethyl)phenyl)aniline]",–,0.1 to 1 µM
"CC(N)Cn1nnc(-c2ccccc2Nc2ccc(C(F)(F)F)cc2)n1 (centres unmarked) [Compound 229, 2-(2-(2-aminopropyl)-2H-tetrazol-5-yl)-N-(4-(trifluoromethyl)phenyl)aniline]",0.1 to 1 µM,–
"OC1(Cn2nnc(-c3ccccc3Nc3ccc(C(F)(F)F)cc3)n2)CNC1 [Compound 157, 3-[[5-[2-[4-(trifluoromethyl)anilino]phenyl]tetrazol-2-yl]methyl]azetidin-3-ol]",0.1 to 1 µM,–

# Second part, led by results:
IC50 [1],SMILES,IC50 [2]
< 0.1 µM,"CC(CO)n1nnc(-c2ccccc2Nc2ccc(C(F)(F)F)cc2)n1 (centres unmarked) [Compound 125, 2-[5-[2-[4-(trifluoromethyl)anilino]phenyl]tetrazol-2-yl]propan-1-ol]",–
0.1 to 1 µM,"[N-]=[N+]=Nc1ccc(Nc2ccccc2-c2nnn(CCO)n2)cc1 [Compound 179, 2-[5-[2-(4-azidoanilino)phenyl]tetrazol-2-yl]ethanol]",–
0.1 to 1 µM,"NCCn1nnc(-c2ccccc2Nc2ccc(C(F)(F)F)cc2)n1 [Compound 228, 2-(2-(2-aminoethyl)-2H-tetrazol-5-yl)-N-(4-(trifluoromethyl)phenyl)aniline]",–
0.1 to 1 µM,"FCCn1nnc(-c2ccccc2Nc2ccc(C(F)(F)F)cc2)n1 [Compound 117, 2-[2-(2-fluoroethyl)tetrazol-5-yl]-N-[4-(trifluoromethyl)phenyl]aniline]",–
1 to 5 µM,"Cc1c(-c2ccccc2Nc2ccc(C(F)(F)F)cc2)cnn1CCO [Compound 84, 2-[5-methyl-4-[2-[4-(trifluoromethyl)anilino]phenyl]pyrazol-1-yl]ethanol]",–
< 0.1 µM,"OCCn1cc(-c2ccccc2Nc2ccc(C(F)(F)F)cc2)nn1 [Compound 191, 2-(4-(2-((4-(trifluoromethyl)phenyl)amino)phenyl)-1H-1,2,3-triazol-1-yl)ethan-1-ol]",–
< 0.1 µM,"OCC(CO)n1nnc(-c2ccccc2Nc2ccc(C(F)(F)F)cc2)n1 [Compound 264, 2-(5-(2-((4-(trifluoromethyl)phenyl)amino)phenyl)-2H-tetrazol-2-yl)propane-1,3-diol]",–
0.1 to 1 µM,"O=C1NC(Cn2nnc(-c3ccccc3Nc3ccc(C(F)(F)F)cc3)n2)CO1 (centres unmarked) [Compound 180, 4-((5-(2-((4-(trifluoromethyl)phenyl)amino)phenyl)-2H-tetrazol-2-yl)methyl)oxazolidin-2-one]",–
< 0.1 µM,"C[C@H](O)[C@@H](C)n1nnc(-c2ccccc2Nc2ccc(C(F)(F)F)cc2)n1 [Compound 195, (2S,3R)-3-(5-(2-((4-(trifluoromethyl)phenyl)amino)phenyl)-2H-tetrazol-2-yl)butan-2-ol]",–
1 to 5 µM,"FC(F)(F)c1ccc(Nc2ccccc2-c2nnn(-c3cccnc3)n2)cc1 [Compound 165, 2-[2-(3-pyridyl)tetrazol-5-yl]-N-[4-(trifluoromethyl)phenyl]aniline]",–
0.1 to 1 µM,"CC(C)C(O)Cn1nnc(-c2ccccc2Nc2ccc(C(F)(F)F)cc2)n1 (centres unmarked) [Compound 141, 3-methyl-1-[5-[2-[4-(trifluoromethyl)anilino]phenyl]tetrazol-2-yl]butan-2-ol]",–
0.1 to 1 µM,OC1(Cn2nnc(-c3ccccc3Nc3ccc(C(F)(F)F)cc3)n2)CCCN(c2ccccc2)C1 (centres unmarked) [Compound 176],–
< 0.1 µM,"OCCn1nnc(-c2cc(Br)ccc2Nc2ccc(C(F)(F)F)cc2)n1 [Compound 254, 2-[5-[5-bromo-2-[4-(trifluoromethyl)anilino]phenyl]tetrazol-2-yl]ethanol]",–
< 0.1 µM,"OC1(Cn2nnc(-c3ccccc3Nc3ccc(C(F)(F)F)cc3)n2)CCCC1 [Compound 152, 1-((5-(2-((4-(Trifluoromethyl)phenyl)amino)phenyl)-2H-tetrazol-2-yl)methyl)cyclopentanol]",–
0.1 to 1 µM,"FC(F)(F)c1ccc(Nc2ccccc2-c2nnn(C3CCNC3)n2)cc1 (centres unmarked) [Compound 227, 2-(2-(pyrrolidin-3-yl)-2H-tetrazol-5-yl)-N-(4-(trifluoromethyl)phenyl)aniline]",–
0.1 to 1 µM,"OC1(Cn2nnc(-c3ccccc3Nc3ccc(C(F)(F)F)cc3)n2)CCCCC1 [Compound 133, 1-[[5-[2-[4-(trifluoromethyl)anilino]phenyl]tetrazol-2-yl]methyl]cyclohexanol]",–
1 to 5 µM,"FC(F)(F)c1ccc(Nc2ccccc2-c2nnn(C3CNC3)n2)cc1 [Compound 221, 2-(2-(azetidin-3-yl)-2H-tetrazol-5-yl)-N-(4-(trifluoromethyl)phenyl)aniline]",–
1 to 5 µM,"CC(CO)c1nc(-c2ccccc2Nc2ccc(C(F)(F)F)cc2)nn1C (centres unmarked) [Compound 206, 2-(1-methyl-3-(2-((4-(trifluoromethyl)phenyl)amino)phenyl)-1H-1,2,4-triazol-5-yl)propan-1-ol]",–
0.1 to 1 µM,"FC(F)(F)c1ccc(Nc2ccccc2-c2nnn(Cc3ccccn3)n2)cc1 [Compound 52, 2-[2-(2-pyridylmethyl)tetrazol-5-yl]-N-[4-(trifluoromethyl)phenyl]aniline]",–
< 0.1 µM,"NC(=O)NCCn1nnc(-c2ccccc2Nc2ccc(C(F)(F)F)cc2)n1 [Compound 108, 2-[5-[2-[4-(trifluoromethyl)anilino]phenyl]tetrazol-2-yl]ethylurea]",–
< 0.1 µM,"O[C@H]1CCC[C@H]1n1nnc(-c2ccccc2Nc2ccc(C(F)(F)F)cc2)n1 [Compound 201, (1S,2R)-2-(5-(2-((4-(trifluoromethyl)phenyl)amino)phenyl)-2H-tetrazol-2-yl)cyclopentan-1-ol]",–
0.1 to 1 µM,"CC(=O)NCCn1nnc(-c2ccccc2Nc2ccc(C(F)(F)F)cc2)n1 [Compound 92, N-[2-[5-[2-[4-(trifluoromethyl)anilino]phenyl]tetrazol-2-yl]ethyl]acetamide]",–
< 0.1 µM,"FC(F)(F)c1ccc(Nc2ccccc2-c2nnn(C3COCOC3)n2)cc1 [Compound 263, 2-(2-(1,3-dioxan-5-yl)-2H-tetrazol-5-yl)-N-(4-(trifluoromethyl)phenyl)aniline]",–
